Assay results: patent publication US12545685B2 (Daiichi Sankyo Company, Limited, priority 2011, dated 2026)

Biological target: T1, Mdm2/p53 binding (GST-Mdm2 / His-p53) (Homo sapiens, UniProt Q00987, L33E)
T1 construct: Mdm2 partial protein having Mdm2 amino acids at positions 25 to 108
Assay: Mdm2/p53 binding assay (HTRF, His-p53 and GST-Mdm2)
Details: His-p53 (aa 1-132) and GST-Mdm2 (aa 25-108, L33E) 6.25 nM each; 25°C, 1 hour; values given as ranges
Method in brief: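 Binding was detected by HTRF (ex 320 nm, em 620/665 nm) after 1 h at 25 °C, using Eu-cryptate anti-GST and XL665 anti-His antibodies. The protein pair was GST-Mdm2 (residues 25–108, L33E) with His-p53 (residues 1–132), each 6.25 nM in the protein dilution. T/C used no-compound control and no-p53 background, and IC50 came from sigmoid fitting.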

T1 sequence (Q00987 25-108 L33E): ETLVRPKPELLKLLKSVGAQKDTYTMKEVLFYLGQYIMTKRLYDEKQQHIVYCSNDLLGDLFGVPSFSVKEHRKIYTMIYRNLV

SMILES: CO[C@@H]1C[C@@H](NC(=O)[C@@H]2NC3(CCC(C)(C)CC3)[C@@]3(C(=O)Nc4nc(Cl)ccc43)[C@H]2c2cccc(Cl)c2F)CO[C@@H]1CO [Example 68, (3′R, 4′S,5′R)-6″-chloro-4′-(3-chloro-2-fluorophenyl)-N-[(3R,5R,6R)-6-(hydroxymethyl)-5-methoxytetrahydro-2H-pyran-3-yl]-4,4-dimethyl-2″-oxo-1″,2″-dihydrodispiro[cyclohexane-1,2′-pyrrolidine-3′,3″-pyrrolo[2,3-b]pyridine]-5′-carboxamide]
- IC50: 1 to 50 nM

SMILES: CC1(C)CCC2(CC1)N[C@@H](C(=O)N[C@@H]1CC[C@@H](C(N)=O)OC1)[C@H](c1ccnc(Cl)c1F)[C@]21C(=O)Nc2nc(Cl)ccc21 [Example 71, (3′R, 4′S, S′R)—N-[(3R,6S)-6-carbamoyltetrahydro-2H-pyran-3-yl]-6″-chloro-4′-(2-chloro-3-fluoropyridin-4-yl)-4,4-dimethyl-2″-oxo-1″,2″-dihydrodispiro[cyclohexane-1,2′-pyrrolidine-3′,3″-pyrrolo[2,3-b]pyridine]-5′-carboxamide]
- IC50: 1 to 50 nM

SMILES: CC1(C)CCC2(CC1)N[C@@H](C(=O)N[C@H]1CC[C@H](N3CC(O)C3)CC1)[C@H](c1ccnc(Cl)c1F)[C@]21C(=O)Nc2cc(Cl)ccc21 [Example 72, (3′R, 4′S,5′R)-6″-chloro-4′-(2-chloro-3-fluoropyridin-4-yl)-N-[trans-4-(3-hydroxyazetidine-1-yl)cyclohexyl]-4,4-dimethyl-2″-oxo-1″,2″-dihydrodispiro[cyclohexane-1,2′-pyrrolidine-3′,3″-indole]-5′-carboxamide]
- IC50: 1 to 50 nM

SMILES: CO[C@]1(CO)CC[C@H](NC(=O)[C@@H]2NC3(CCC(C)(C)CC3)[C@@]3(C(=O)Nc4cc(Cl)ccc43)[C@H]2c2cccc(Cl)c2F)CC1 [Example 73, (3′R, 4′S,5′R)-6″-chloro-4′-(3-chloro-2-fluorophenyl)-N-[cis-4-(hydroxymethyl)-4-methoxycyclohexyl]-4,4-dimethyl-2″-oxo-1″,2″-dihydrodispiro[cyclohexane-1,2′-pyrrolidine-3′,3″-indole]-5′-carboxamide]
- IC50: 50 to 100 nM

SMILES: CO[C@]1(CO)CC[C@@H](NC(=O)[C@@H]2NC3(CCC(C)(C)CC3)[C@@]3(C(=O)Nc4cc(Cl)ccc43)[C@H]2c2cccc(Cl)c2F)CC1 [Example 74, (3′R, 4′S,5′R)-6″-chloro-4′-(3-chloro-2-fluorophenyl)-N-[trans-4-(hydroxymethyl)-4-methoxycyclohexyl]-4,4-dimethyl-2″-oxo-1″,2″-dihydrodispiro[cyclohexane-1,2′-pyrrolidine-3′,3″-indole]-5′-carboxamide]
- IC50: 50 to 100 nM

SMILES: CC1(C)CC2(C1)N[C@@H](C(=O)N[C@@H]1CC[C@@H](CO)OC1)[C@H](c1cccc(Cl)c1F)[C@]21C(=O)Nc2nc(Cl)ccc21 [Example 79, (3′R, 4′S,5′R)-6″-chloro-4′-(3-chloro-2-fluorophenyl)-N-[(3R,6S)-6-(hydroxymethyl)tetrahydro-2H-pyran-3-yl]-3,3-dimethyl-2″-oxo-1″,2″-dihydrodispiro[cyclobutane-1,2′-pyrrolidine-3′,3″-pyrrolo[2,3-b]pyridine]-5′-carboxamide]
- IC50: 50 to 100 nM

SMILES: COC[C@]1(O)CC[C@@H](NC(=O)[C@@H]2NC3(CCC(C)(C)CC3)[C@@]3(C(=O)Nc4nc(Cl)ccc43)[C@H]2c2ccnc(Cl)c2F)CC1 [Example 80, (3′R, 4′S,5′R)-6″-chloro-4′-(2-chloro-3-fluoropyridin-4-yl)-N-[cis-4-hydroxy-4-(methoxymethyl)cyclohexyl]-4,4-dimethyl-2″-oxo-1″,2″-dihydrodispiro[cyclohexane-1,2′-pyrrolidine-3′,3″-pyrrol[2,3-b]pyridine]-5′-carboxamide]
- IC50: 50 to 100 nM

SMILES: CO[C@]1(CO)CC[C@@H](NC(=O)[C@@H]2NC3(CCC(C)(C)CC3)[C@@]3(C(=O)Nc4nc(Cl)ccc43)[C@H]2c2cccc(Cl)c2F)CC1 [Example 81, (3′R, 4′S,5′R)-6″-chloro-4′-(3-chloro-2-fluorophenyl)-N-[trans-4-(hydroxymethyl)-4-methoxycyclohexyl]-4,4-dimethyl-2″-oxo-1″,2″-dihydrodispiro[cyclohexane-1,2′-pyrrolidine-3′,3″-pyrrolo[2,3-b]pyridine]-5′-carboxamide]
- IC50: 1 to 50 nM

SMILES: CO[C@]1(CO)CC[C@@H](NC(=O)[C@@H]2NC3(CCC(C)(C)CC3)[C@@]3(C(=O)Nc4nc(Cl)ccc43)[C@H]2c2ccnc(Cl)c2F)CC1 [Example 82, (3′R, 4′S,5′R)-6″-chloro-4′-(2-chloro-3-fluoropyridin-4-yl)-N-[trans-4-(hydroxymethyl)-4-methoxycyclohexyl]-4,4-dimethyl-2″-oxo-1″,2′-dihydrodispiro[cyclohexane-1,2′-pyrrolidine-3′,3″-pyrrolo[2,3-b]pyridine]-5′-carboxamide]
- IC50: 1 to 50 nM

SMILES: CO[C@]1(CO)CC[C@H](NC(=O)[C@@H]2NC3(CCC(C)(C)CC3)[C@@]3(C(=O)Nc4nc(Cl)ccc43)[C@H]2c2ccnc(Cl)c2F)CC1 [Example 83, (3′R, 4′S,5′R)-6″-chloro-4′-(2-chloro-3-fluoropyridin-4-yl)-N-[cis-4-(hydroxymethyl)-4-methoxycyclohexyl]-4,4-dimethyl-2″-oxo-1″,2″-dihydrodispiro[cyclohexane-1,2′-pyrrolidine-3′,3″-pyrrolo[2,3-b]pyridine]-5′-carboxamide]
- IC50: 1 to 50 nM

SMILES: O=C(N[C@@H]1CC[C@@H](CO)OC1)[C@@H]1NC2(CC(CF)(CF)C2)[C@@]2(C(=O)Nc3nc(Cl)ccc32)[C@H]1c1cccc(Cl)c1F [Example 84, (3′R, 4′S,5′R)-6″-chloro-4′-(3-chloro-2-fluorophenyl)-3,3-bis(fluoromethyl)-N-[(3R,6S)-6-(hydroxymethyl)tetrahydro-2H-pyran-3-yl]-2″-oxo-1″,2″-dihydrodispiro[cyclobutane-1,2′-pyrrolidine-3′,3″-pyrrolo[2,3-b]pyridine]-5′-carboxamide]
- IC50: 50 to 100 nM

SMILES: CC1(C)CCC2(CC1)N[C@@H](C(=O)N[C@H]1CC[C@](O)(CS(C)(=O)=O)CC1)[C@H](c1ccnc(Cl)c1F)[C@]21C(=O)Nc2cc(Cl)ccc21 [Example 87, (3′R, 4′S,5′R)-6″-chloro-4′-(2-chloro-3-fluoropyridin-4-yl)-N-{cis-4-hydroxy-4-[(methylsulfonyl)methyl]cyclohexyl}-4,4-dimethyl-2″-oxo-1″,2′-dihydrodispiro[cyclohexane-1,2′-pyrrolidine-3′,3″-indole]-5′-carboxamide]
- IC50: 1 to 50 nM

SMILES: O=C(N[C@@H]1CC[C@@H](CO)OC1)[C@@H]1NC2(CC(CF)(CF)C2)[C@@]2(C(=O)Nc3cc(Cl)ccc32)[C@H]1c1ccnc(Cl)c1F [Example 91, (3′R, 4′S,5′R)-6″-chloro-4′-(2-chloro-3-fluoropyridin-4-yl)-3,3-bis(fluoromethyl)-N-[(3R,6S)-6-(hydroxymethyl)tetrahydro-2H-pyran-3-yl]-2″-oxo-1″,2″-dihydrodispiro[cyclobutane-1,2′-pyrrolidine-3′,3″-indole]-5′-carboxamide]
- IC50: 50 to 100 nM

SMILES: CC1(C)CCC2(CC1)N[C@@H](C(=O)N[C@@H]1CC[C@@H](CO)OC1)[C@H](c1cncc(Cl)c1)[C@]21C(=O)Nc2cc(Cl)ccc21 [Example 92, (3′R, 4′R, 5′R)-6″-chloro-4′-(5-chloropyridin-3-yl)-N-[(3R,6S)-6-(hydroxymethyl)tetrahydro-2H-pyran-3-yl]-4,4-dimethyl-2″-oxo-1″,2″-dihydrodispiro[cyclohexane-1,2′-pyrrolidine-3′,3″-indole]-5′-carboxamide]
- IC50: 1 to 50 nM
